Data as given in patent US8344139B2, “Process for preparing crystalline polymorphic forms of (6R)-L-erythro-tetrahydrobiopterin dihydrochloride” (Merck Eprova AG, priority 2003, dated 2013).
“Also recorded” adds a separate entry of the source. Values belong to the molecule of their own block, whether it stands above or below them.

Assays:
[1] = Phase equilibration / suspension stability tests in solvents, solid form by FT Raman and X-ray diffraction; type: physicochemical; settings: room temperature
Description: 105 mg of polymorph A according to example A1 are suspended in 1.0 ml tertiary butyl methyl ether (TBME). The suspension is stirred under nitrogen atmosphere for about 18 hours at room temperature, filtrated and the white solid residue is then dried under air.
90 mg of polymorph A according to example A1 are suspended in 2.0 ml tetrahydrofuran (THF) and the resulting suspension is stirred in air for five days at room temperature, filtrated and the white solid residue is then dried under air.
The white suspension is stirred for 5 hours at room temperature, filtrated and dried under nitrogen at room temperature.
The white suspension is stirred over night at room temperature, filtrated and then dried under nitrogen at room temperature.
The white suspension is stirred over night at room temperature, filtrated and dried under nitrogen room temperature.
The white suspension is stirred in air over a weekend at room temperature, filtrated and then dried in air at room temperature. […] The white suspension is stirred for about 20 hours at room temperature, filtrated and dried in air at room temperature.
The suspension is stirred for about 20 hours at room temperature under nitrogen atmosphere, filtrated and then drying under nitrogen.
The suspension is stirred at room temperature under nitrogen atmosphere for about 23 hours, filtrated and dried in air.
105 mg of hydrate form D according to example B3 are suspended in 2.0 ml IPA. The suspension is stirred at room temperature for about 18 hours, filtered and the solid then dried in air at room temperature for about 4 hours.
Powder X-ray Diffraction (PXRD): PXRD is performed either on a Philips 1710 or on a Philips X'Pert powder X-ray diffractometer using CuKα radiation. D-spacings are calculated from the 2θ using the wavelength of the CuKα1 radiation of 1.54060 A. The X-ray tube was operated at a Voltage of 45 kV (or 40 kV with X'Pert Instrument), and a current of 45 mA (or 40 mA with X'Pert Instrument). A step size of 0.02°, and a counting time of 2.4 s per step is applied. Generally, 2θ values are within an error of ±0.1-0.2°. The experimental error on the d-spacing values is therefore dependent on the peak location.
Raman spectroscopy: FT-Raman spectra are recorded on a Bruker RFS 100 FT-Raman system with a near infrared Nd:YAG laser operating at 1064 nm and a liquid nitrogen-cooled germanium detector. For each sample, 64 scans with a resolution of 2 cm^−1 are accumulated. Generally; 300 mW laser power is used.

[2] = Storage of solid forms under defined relative humidity, resulting crystal form; type: physicochemical
Description: Hydrate form C is retained. 71 mg of polymorph form A according to example A1 are stored in air under 52% relative humidity at room temperature for 17 days. […] About 50 mg of polymorph form F according to example A26 are placed on an powder X-ray diffraction sample holder of 0.8 mm thickness (TTK type, obtained form Anton Pear GmbH, Graz, Austria). The prepared sample holder is placed in the closed sample chamber of a Philips X'Pert powder X-ray diffractometer and the sample chamber is purged with nitrogen and partially saturated with water vapour to a resulting relative humidity of about 52%. After an exposure time of about 24 hour a powder X-ray diffraction pattern is recorded.

[3] = Hygroscopicity / water adsorption (thermogravimetry, TG-FTIR); type: physicochemical; settings: for hygroscopicity / adsorbed water content: dihydrochloride; for adsorbed water content: water released on heating at 10° C./minute
Description: 1.05 gram of (6R)-L-erythro-tetrahydrobiopterin dihydrochloride are dissolved in 4.0 ml of bi-distilled water at 23±2° C. The solution is filtrated through a 0.22 μm millipore filtration unit and the filtrate is transferred into a 250 ml round flask. The solution in this flask is frozen by placing the flask into a bed with solid carbon dioxide at −78° C. The flask with the frozen content is then connected to a laboratory freeze dryer operating at a starting pressure of about 0.05 mbar. After about 20 hours the freeze drying is complete and the vacuum flask is disconnected from the freeze dryer and about 1.0 g of white, crystalline solid material is obtained. […] The sample begins to decompose above 200° C. TG-FTIR: Thermogravimetric measurements are carried out with a Netzsch Thermo-Micro-balance TG 209 coupled to a Bruker FTIR Spectrometer Vector 22 (sample pans with a pinhole, N2 atmosphere, heating rate 10 K/min).

[4] = Relative stability of the crystal forms as described; settings: for relative stability of the crystal form: dihydrochloride
[5] = 52% relative humidity, room temperature, 17 days, dihydrochloride

- crystal form after suspension stirring ([1]; tertiary butyl methyl ether, about 18 hours, nitrogen, dihydrochloride): unchanged polymorph form A
- crystal form after suspension stirring ([1]; tertiary butyl methyl ether, about 18 hours, nitrogen, listed as polymorph A, dihydrochloride): essentially still corresponds to form A
- crystal form after suspension stirring ([1]; tetrahydrofuran, five days, dihydrochloride): unchanged polymorph form A
- crystal form after suspension stirring ([1]; tetrahydrofuran, five days, listed as polymorph A, dihydrochloride): still corresponds to form A
- crystal form after storage [2, 5]: corresponds to hydrate form E
- hygroscopicity ([3]; listed as polymorph A): slightly hygroscopic
- temperature above which the sample begins to decompose ([3]; thermogravimetry, heating rate 10° C./minute): above 200 °C
- adsorbed water content ([3]; listed as polymorph A): about 3 percent by weight
SMILES: C[C@H](O)[C@H](O)[C@H]1CNc2nc(N)[nH]c(=O)c2N1.Cl.Cl [form A, (6R)-L-erythro-tetrahydrobiopterin dihydrochloride]

- crystal form after suspension stirring ([1]; 2-Propanol, over night, nitrogen): polymorph form B
- crystal form after suspension stirring ([1]; EtOH, over night, nitrogen): polymorph form B
- crystal form after suspension stirring ([1]; acetone, over night, nitrogen): polymorph form B
- crystal form after suspension stirring ([1]; acetonitrile containing 2% by weight of water, about 20 hours, nitrogen): polymorph form B
- crystal form after suspension stirring ([1]; ethyl acetate containing 2% by weight of water, about 23 hours, nitrogen): polymorph form B
- crystal form after suspension stirring ([1]; methanol, 5 hours, nitrogen): polymorph form B
- crystal form after storage ([2]; open container under air, 75% relative humidity, 40° C., 5 days): still polymorph form B
- hygroscopicity ([3]; listed as Polymorph B): slightly hygroscopic
SMILES: C[C@H](O)[C@H](O)[C@H]1CNc2nc(N)[nH]c(=O)c2N1.Cl.Cl [form B, (6R)-L-erythro-tetrahydrobiopterin dihydrochloride]
- crystal form after suspension stirring ([1]; EtOH in air, over a weekend): slightly yellow crystalline solid, polymorph form B
- crystal form after suspension stirring ([1]; THF, about 20 hours, nitrogen (slightly yellow solid from the EtOH/air test)): slightly yellow crystalline solid, polymorph form B

- crystal form after storage [2, 5]: retained
- hygroscopicity [3]: slightly hygroscopic
- conversion of the crystal form ([4]; about 40° C. in air and lower relative humidity): easily converted to polymorph form B
SMILES: C[C@H](O)[C@H](O)[C@H]1CNc2nc(N)[nH]c(=O)c2N1.Cl.Cl [form C, (6R)-L-erythro-tetrahydrobiopterin dihydrochloride]

- crystal form after suspension stirring ([1]; IPA, about 18 hours): unchanged hydrate form D
- hygroscopicity [3]: slightly hygroscopic
- stability on exposure to air humidity ([4]; ambient temperature): stable
- relative stability of the crystal form ([4]; listed as hydrate D): much higher stability than form C
SMILES: C[C@H](O)[C@H](O)[C@H]1CNc2nc(N)[nH]c(=O)c2N1.Cl.Cl [form D, (6R)-L-erythro-tetrahydrobiopterin dihydrochloride]
- relative stability of the crystal form [4]: most stable one under the known hydrates at ambient temperatures and a relative humidity of less than 70%; also recorded: most stable form under the hydrates

- crystal form after storage [2, 5]: retained
- hygroscopicity [3]: non-hygroscopic
SMILES: C[C@H](O)[C@H](O)[C@H]1CNc2nc(N)[nH]c(=O)c2N1.Cl.Cl [form E, (6R)-L-erythro-tetrahydrobiopterin dihydrochloride]

- crystal form after exposure to humidity ([2]; nitrogen with water vapour, relative humidity about 52%, about 24 hour): crystalline form O
- hygroscopicity ([3]; listed as polymorph F): slightly hygroscopic
- adsorbed water content ([3]; listed as polymorph F): about 3 percent by weight
SMILES: C[C@H](O)[C@H](O)[C@H]1CNc2nc(N)[nH]c(=O)c2N1.Cl.Cl [form F, (6R)-L-erythro-tetrahydrobiopterin dihydrochloride]

- hygroscopicity [3]: hygroscopic
SMILES: C[C@H](O)[C@H](O)[C@H]1CNc2nc(N)[nH]c(=O)c2N1.Cl.Cl [form G, (6R)-L-erythro-tetrahydrobiopterin dihydrochloride]

- hygroscopicity [3]: hygroscopic
SMILES: C[C@H](O)[C@H](O)[C@H]1CNc2nc(N)[nH]c(=O)c2N1.Cl.Cl [form H, (6R)-L-erythro-tetrahydrobiopterin dihydrochloride]

- hygroscopicity [3]: hygroscopic
SMILES: C[C@H](O)[C@H](O)[C@H]1CNc2nc(N)[nH]c(=O)c2N1.Cl.Cl [form I, (6R)-L-erythro-tetrahydrobiopterin dihydrochloride]

- hygroscopicity ([3]; listed as polymorph J): slightly hygroscopic
- relative humidity at which the form transforms back into form E [4]: above 75 % relative humidity
SMILES: C[C@H](O)[C@H](O)[C@H]1CNc2nc(N)[nH]c(=O)c2N1.Cl.Cl [form J, (6R)-L-erythro-tetrahydrobiopterin dihydrochloride]

- hygroscopicity ([3]; listed as polymorph K): slightly hygroscopic
- adsorbed water content ([3]; listed as polymorph K): about 2.0 percent by weight
SMILES: C[C@H](O)[C@H](O)[C@H]1CNc2nc(N)[nH]c(=O)c2N1.Cl.Cl [form K, (6R)-L-erythro-tetrahydrobiopterin dihydrochloride]
- relative stability of the crystal form ([4]; listed as polymorph K): less stable than form B at higher temperatures

- hygroscopicity [3]: slightly hygroscopic
SMILES: C[C@H](O)[C@H](O)[C@H]1CNc2nc(N)[nH]c(=O)c2N1.Cl.Cl [form M, (6R)-L-erythro-tetrahydrobiopterin dihydrochloride]

- hygroscopicity [3]: slightly hygroscopic
SMILES: C[C@H](O)[C@H](O)[C@H]1CNc2nc(N)[nH]c(=O)c2N1.Cl.Cl [form N, (6R)-L-erythro-tetrahydrobiopterin dihydrochloride]

SMILES: C[C@H](O)[C@H](O)[C@H]1CNc2nc(N)[nH]c(=O)c2N1.Cl.Cl [form O, (6R)-L-erythro-tetrahydrobiopterin dihydrochloride]
- relative stability of the crystal form [4]: more stable than form F under ambient temperature and humidity conditions
